Data: patent publication EP0821956A1, “Method for treating disruptive behavior disorders” (ELI LILLY AND COMPANY, priority 1996, dated 1998)

Experiments:
[1] = target: ^3H-oxotremorine-M binding (muscarinic receptors); test: 3H-oxotremorine-M binding study; conditions: inhibition of binding of ^3H-oxotremorine-M; read-out: inhibition constant (Ki)
[2] = target: D2 receptor subtype (Homo sapiens, UniProt P14416); test: pharmacological studies at the D2 receptor subtype
[3] = target: m4 receptors (Homo sapiens, UniProt P08173); assay type: cell-based; conditions: CHO m4 cells treated with pertussis toxin
Sequence of m4 receptors (P08173 whole entry): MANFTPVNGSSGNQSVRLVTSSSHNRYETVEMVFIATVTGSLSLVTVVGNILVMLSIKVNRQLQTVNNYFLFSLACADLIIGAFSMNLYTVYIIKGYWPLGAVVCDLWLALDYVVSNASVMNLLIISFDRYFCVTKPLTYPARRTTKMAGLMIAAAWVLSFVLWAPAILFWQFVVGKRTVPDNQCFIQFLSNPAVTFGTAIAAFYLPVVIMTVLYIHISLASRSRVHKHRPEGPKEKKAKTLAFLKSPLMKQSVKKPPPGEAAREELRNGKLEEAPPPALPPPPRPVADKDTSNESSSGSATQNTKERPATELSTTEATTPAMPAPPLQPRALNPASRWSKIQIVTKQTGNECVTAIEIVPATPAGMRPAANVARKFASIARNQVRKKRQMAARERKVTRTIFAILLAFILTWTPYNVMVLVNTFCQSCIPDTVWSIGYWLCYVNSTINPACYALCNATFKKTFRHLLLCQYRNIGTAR

Sequence of D2 receptor subtype (P14416 whole entry): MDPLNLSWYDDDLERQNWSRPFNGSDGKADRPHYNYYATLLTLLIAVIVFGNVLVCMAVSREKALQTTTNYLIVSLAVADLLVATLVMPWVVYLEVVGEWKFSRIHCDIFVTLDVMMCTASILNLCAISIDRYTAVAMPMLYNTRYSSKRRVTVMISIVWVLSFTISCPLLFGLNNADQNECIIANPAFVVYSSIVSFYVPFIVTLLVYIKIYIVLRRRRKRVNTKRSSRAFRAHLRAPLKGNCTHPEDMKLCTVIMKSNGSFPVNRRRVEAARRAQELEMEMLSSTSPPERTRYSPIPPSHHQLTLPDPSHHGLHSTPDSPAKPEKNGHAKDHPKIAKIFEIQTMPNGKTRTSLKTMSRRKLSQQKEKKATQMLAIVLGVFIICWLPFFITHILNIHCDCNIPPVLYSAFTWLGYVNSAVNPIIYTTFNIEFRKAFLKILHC

CCCCCCOc1nsnc1C1=CCCN(C)C1 [xanomeline, 3-(4-hexyloxy-1,2,5-thiadiazol-3-yl)-1,2,5,6-tetrahydro-1-methylpyridine]
Ki [1]: 2 nM | activity at the D2 receptor subtype [2]: active | formation of cAMP [3]: efficaciously and potently stimulated the formation of cAMP
